Source: article PMC8110578, “Phenylethynylbenzyl-modified biguanides inhibit pancreatic cancer tumor growth” (Scientific Reports, 2021)

Experiments:
[1] = tested on: NB508 mouse pancreatic ductal adenocarcinoma cells; test: In vitro growth inhibition screen at 5 µM, NB508 cells; format: cell-based; conditions: 72 h at 37 °C
Source text: (§1) Figure 1 (A) Structure and crystal packing of previously studied PEB-disubstituted (A.1) and monosubstituted (A.2 and A.3) benzimidazolium salts. Compound A.1 is an efficient chloride transporter forming channels and generating holes in bacterial membranes and red blood cellular membranes. Compound A.2 penetrates phospholipid membranes but is less efficient as ion transporter as it forms more compact aggregates; its toxicity on RBC is lower than compound A.1. The replacement of the phenyl group with a methyl group in compound A.3 results in the formation of even more compact aggregates with even lower toxicity on RBC. (B) Structure of PEB-substituted biguanidium salts. For each biguanide we prepared three series of biguanidium salts with different counterions. (C) Synthesis of 4-(phenylethynyl)benzylbiguanide 1 and 4-(phenylethyl)benzylbiguanide 2; (a) Phenylacetylene, PdCl2PPh3, CuI, PPh3, Et3N, THF, 70 °C, o.n. (b) NaCN(BH3)3, EtOHNH4OAc sat./NH3, 80 °C, o.n (c) Dicyandiamide, TMSCl, THFanh., 145 °C, 1 h (d) Pd/C 10%, H2, EtOH/AcOEt, 60 °C, 2 h. (D) Synthesis of 4-(phenylethynylphenyl)biguanidium 3 and 4-(phenylethylphenyl)biguanidium 4 (a) (1) Boc2O, THF, 2 h, (2) Phenylacetylene, PdCl2PPh3, CuI, PPH3, Et3N, THF, 70°, o.n. (b) TFA, DCM, 60 °C, 2 h (c) Dicyandiamide, TMSCl, THFanh, 145 °C, 1 h (d) Pd/C 10%, H2, EtOH/AcOEt, 60 °C, 2 h. The NMR spectra of the synthesized compounds are given in Supplementary Figs. S1–S24. (E) Relative growth of NB508 mouse pancreatic ductal adenocarcinoma cells and IMR90 fibroblasts exposed to 5 µM of PEB-biguanidium salts. Cells were incubated for 72 h at 37 °C. Errors bars represent the standard error of the mean (SEM), *p < 0.05, **p < 0.01, Student’s t test. (F) Crystal structure of 1b showing its self-assembly in the solid state. Crystal data is available in Supplementary Tables S1–S8 and crystal packing in Supplementary Fig. S25. TEXT PRINTED IN THE PICTURE: (A) A.1: HC50: 0.15 mM | (A) A.2: HC50: 1 mM | (A) A.3: HC50: 150 mM
NB508 is an aggressive pro-metastatic pancreatic cancer cell line that we used previously to study the role of mitochondria in pancreatic cancer. […].

[2] = U-tube experiment (partition across a bulk hydrophobic solvent); format: physicochemical; conditions: 250 µM on cis side, up to 72 h
Procedure: (§2) Figure 2 (A) Partition of compounds in an U-tube experiment. Concentration of biguanide on the trans-side of the U-tube at 48 h and 72 h at 25 °C, after addition of 250 µM of biguanide on the cis-side. (B) Variation in the internal pH of HPTS-containing EYPC liposomes. Intravesicular solution: 1 mM HPTS, 10 mM HEPES, and 100 mM NaCl, adjusted to pH = 7.4, and extravesicular solution: 10 mM HEPES and 100 mM NaCl, adjusted to pH = 7.4. Biguanidiums were injected after 50 s at 5 mM (50 mol% relative to the 10 mM EYPC concentration), a NaOH pulse was induced at 300 s, and the liposomes were lysed with Triton-X at 550 s. Each curve is the average of three independent measurements. (C) Fluorescence of safranin O in the EYPC liposomes. Biguanidium salts were injected at 5 mM (50 mol% relative to the 10 mM EYPC concentration) at 50 s. Each curve is the average of three independent measurements. […] Mitochondrial isolation was performed according to the previously reported protocol.
Experimental. U-tube experiment was prepared by adding 800 µL of dichloromethane in a U-shaped tube as a representation of the hydrophobic lipid membrane. On the receiving end (trans side) of the tube was added 300 µL of distilled water while the other side (cis side) was filled with 300 µL of a 250 µM solution of the compound of interest at 25°C. At 48h and 72h, 100 µL aliquot of the trans side was diluted in 900 µL methanol and monitored by LCMS (292 m/z). Area under curve (AUC) was measured and fitted on a calibration curve.

[3] = HPTS assay, internal pH of EYPC liposomes; conditions: 5 mM (50 mol% relative to 10 mM EYPC), NaOH pulse at 300 s
Procedure: as §2

[4] = Safranin O assay, membrane potential of EYPC liposomes; conditions: 5 mM (50 mol% relative to 10 mM EYPC)
Procedure: as §2

[5] = tested on: KP4 cells sub-cutaneous xenografts; test: KP4 sub-cutaneous xenografts in nude mice; conditions: 50 mg/kg/day IP, 5 day/week, from day 11 post engraftment, 37 days
Source text: This dose was chosen from previous work on biguanides to treat mice with pancreatic cancer.
Figure 5 Progression of the volume of KP4 cells sub-cutaneous xenografts performed in nude mice over 37 days. […] (B) Body weight of mice seven days after treatment. […] Representative images shown. Scale bar = 100 µm. […] Results are shown in graphics comparing the percentage of cells stained in each category and the intensity of staining. (E,G) Images of the most representative phenotypes for KI67 staining (E) and cleaved caspase 3 (G).
Experimental. All experiments were performed in accordance to the rules of the in vivo ethical committe of University of Montreal (CDEA #17-103). 6-7 weeks old female nude mice (Hsd:Athymic Nude- Foxn1nu, Envigo) were implanted sub-cutaneously with 750.000 KP4 cells in 100μl of a sterile mix of 20% Matrigel (Corning) in saline solution. Tumor volume was determined by using a caliper, following the formula 4/3*Π*(L*W*T) were L represent the length of the tumor, W, the width, and T, the thickness (all measured in millimeter). […] The compounds were dissolved in the vehicle: 45% Propyleneglycol (Sigma-Aldrich) +5% Tween 80 (Sigma-Aldrich) + ddH2O.

[6] = tested on: KP4 tumor sections; test: KI67 and cleaved caspase 3 staining of tumor sections from treated mice; format: in vivo, nude mice; conditions: 50 mg/kg, tumor sections after treatment
Source text: (B) Body weight of mice seven days after treatment. […] Representative images shown. Scale bar = 100 µm.
To assess the mechanism of the antitumor activity, we stained tumor sections obtained from animals after the treatment protocol for proliferation marker KI67 and apoptosis marker cleaved caspase 3, and quantified the data according to the scoring key in Fig. 5C. […] However, there were no significant differences in staining for cleaved caspase 3 […].

[7] = tested on: IMR90 fibroblasts; test: In vitro growth inhibition screen at 5 µM, IMR90 fibroblasts; format: cell-based, human; conditions: 72 h
Source text: as §1, with “The NMR spectra of the synthesized compounds are given in Supplementary Figs. S1–S24. (E) Relative growth of NB508 mouse pancreatic ductal adenocarcinoma cells and IMR90 fibroblasts exposed to 5 µM of PEB-biguanidium salts. Cells were incubated for 72 h at 37 °C. Errors bars represent the standard error of the mean (SEM), *p < 0.05, **p < 0.01, Student’s t test. (F) Crystal structure of 1b showing its self-assembly in the solid state. Crystal data is available in Supplementary Tables S1–S8 and crystal packing in Supplementary Fig. S25. TEXT PRINTED IN THE PICTURE: (A) A.1: HC50: 0.15 mM | (A) A.2: HC50: 1 mM | (A) A.3: HC50: 150 mM” left out

[8] = tested on: red blood cells; test: Hemolytic activity of PEB-biguanidium salts; format: cell-based; conditions: red blood cells 2% v/v in PBS, 1 h at 37 °C
Procedure: The toxicity of PEB-Biguanidiums salts was estimated through their hemolytic activity by incubating red blood cells (RBC) with the compounds for 1 h (See Supplementary Table S13 and Supplementary Fig. S29).
Experimental. Red blood cells in Alsever’s solution were centrifuged for 10 min at 300g, washed 3 times with PBS buffer, and resuspended in PBS at 2% v/v. To each well of a 96-well plate, 195 µL of red blood cell solution and 5 µL of biguanidium salt in DMSO were added, and the plate was incubated with light agitation for 1 h at 37 °C. The plate was then centrifuged for 10 min at 300g, and 50 µL of the supernatant solution of each well was transferred to another plate. Absorbance was measured at λ = 405 nm. Each measurement was performed in triplicate in three different experiments.

[9] = tested on: KP4 cells; test: Growth assay (crystal violet), KP4 cells; format: cell-based, human; conditions: Homo sapiens, KP-4, 72 h, KP4 cells, 3 days treatment, crystal violet retention assay; read-out: IC50 KP4
Procedure: (§3) All chemicals were purchased from Aldrich Chemicals in their highest purity and used without further purification. Deuterated dimethylsulfoxide (DMSO-d^6) and deuterated chloroform (CDCl3) were purchased from CDN Isotopes. NMR spectra were recorded on Bruker advance 400 and 100 spectrometers. Coupling constants are given in hertz (Hz) and chemical shifts are given in parts per million (ppm, δ) measured relative to the residual solvent (the multiplicity of the signals are given as s: singlet, d: doublet, t: triplet, and m: multiplet). High-resolution mass spectra (HRMS) were recorded on a TSQ Quantum Ultra (Thermo Scientific) triple quadrupole with accurate mass option instrument (Université de Montréal Mass Spectrometry Facility). MS experiences were performed using an UltrafleXtreme MALDI TOF/TOF mass spectrometer equipped with a SmartBeam II Nd:Yag/355 nm laser operating at 1 kHz and providing a laser focus down to 20 μm in diameter (Bruker Daltonics, Billerica, MA). The data acquisition for MS was performed in positive ion mode using the linear geometry with flexControl 3.4 (Bruker Daltonics, Billerica, MA). Acceleration voltage was set to + 25 kV and all other instrumental parameters (delayed extraction parameters, source voltages, detector gain, laser energy, etc.) were optimized for maximum S/N for the drug compounds. L-α-Phosphatidylcholine was purchased from Avanti Polar Lipids. Transport and depolarization studies as well as absorbance measurements were performed on a Varian Cary Eclipse fluorescence spectrophotometer. The hemolysis assays were performed on a Fluostar Optima plate reader. Single crystals of C18H18F3N5O3S were obtained from chloroform. A suitable crystal was selected and analysed on a Bruker Venture Metaljet diffractometer. Crystal violet retention assay was used for cell growth assays and IC50 were determined using Prism (GraphPad). NAD/NADH quantitation colorimetric kit (#K337-100) from Biovision was used according to manufacturer’s instructions. ECAR (extracellular acidification rate) and OCR of KP4 cells (oxygen consumption rate) were measured on a Seahorse XF-24 (Agilent).
(§4) Experimental. KP4 (Riken RCB1005) and PSN1 (ATCC: CRM-CRL-3211), were cultured in Dulbecco's modified Eagle's medium (DMEM) (Wisent, St-Bruno, QC) supplemented with 10 % of fetal bovine serum (FBS) (Wisent). HPNE hTERT (ATCC: CRL1423) were cultured in a mix of 75% DMEM without glucose (Sigma Cat#. D-5030) with additional 2 mM L-glutamine and 1.5 g/L sodium bicarbonate, 25% Medium M3 Base (Incell Corp. Cat# M300F- 500), fetal bovine serum 5% (wisent 10 ng/ml human recombinant EGF (Sigma-Aldrich), 5.5 mM D-glucose (Sigma-Aldrich), 750 ng/ml puromycin (Sigma-Aldrich). For dose-response assays, cells were seeded in 96 well plates (company). After 24 h, treatments were applied and cells were grown for 3 more days. Crystal violet retention assay used for cell growth assays were described previously^2. The data is expressed as relative absorbance of crystal violet extracted from the cells and diluted in 10 % acetic acid. IC50 were determined using Prism (GraphPad). Tumor spheres were grew according to Ferbeyre et al^3.

[10] = tested on: HPNE cells (normal immortalized pancreatic epithelial cells); test: Growth assay (crystal violet), HPNE cells; format: cell-based, human; conditions: 3 days treatment, crystal violet retention assay
Procedure: . The IC50 of most of the synthetic biguanides in HPNE cells was higher than for cancer cells (Supplementary Table S12).
as §3, §4

Compound	Growth inhibition of NB508 cells [1]	Crossing to the trans-aqueous side of the U-tube (in words) [2]	Change of internal vesicular pH (HPTS) [3]	Membrane depolarization (Safranin-O fluorescence) [4]	Effect on tumor volume [5]	KI67 staining in tumors [6]	Selectivity towards cancer cells (NB508 vs IMR90 fibroblasts) [7]	HC 10% (µM) [8]	HC 10% (µg/ml) [8]	IC50 [9]	IC50 [10]
[H]/N=C(/N)N/C(=N/[H])NCCc1ccccc1 [phenformin, reference compound]	no effect was observed	only traces	no membrane activity	did not show this activity	only modest or non-significant effects	to a smaller extent					
N=C(N)NC(=N)NCc1ccc(C#Cc2ccccc2)cc1 [1a, 4-(phenylethynyl)benzylbiguanide]	most important antiproliferative activities						good selectivity towards cancer cells	> 175 µM	> 100 µg/mL	7.55 µM	16.1 µM
